{
  "source": "patent US20110237560A1",
  "about": "“MODULATING AND/OR DETECTING ACTIVATION INDUCED DEAMINASE AND METHODS OF USE THEREOF” (priority 2010, published 2011)",
  "key": {"DT40 cells": {"test_system": "DT40 cells", "assay": "DT40 cell growth under chronic Hsp90 inhibition", "format": "cell-based, chicken", "details": "chronic low doses", "description": "The median obtained for populations treated in each condition is indicated. […] Mean+SD values for the seven populations in each condition are plotted (middle panel). […] An identical experiment to (A) was performed except that the less toxic 17-AAG was used to inhibit Hsp90. […] The effect of the two 17-AAG concentrations used on DT40 growth was monitored by calculating the total number of cells in populations originating from 10^5 cells (left panel). The data plotted is the mean+SD of triplicate cultures for each condition. […] The quantitation of AID levels (middle panel) and cell growth curves (right panel) were done as in (B)."}, "IgVlambda region": {"test_system": "IgVlambda region", "assay": "Somatic hypermutation in DT40 cells by sequencing of IgVlambda", "details": "0.1 microM"}, "AID-GFP": {"test_system": "AID-GFP", "assay": "Monitoring of AID stability: GFP signal (MFI) by flow cytometry in Ramos transfectants", "format": "cell-based, human", "details": "for degradation of AID-GFP induced by Hsp90 inhibition, with proteasome inhibitor: stable transfectants of Ramos and DT40 cells, 10 microM MG132", "procedure": "(§1) One of two experiments is shown. […] (D) AID stabilization by Hsp90 requires protein-protein interaction. […] Dead cells were excluded by propidium iodide staining. […] One of five independent experiments is shown. […] (D) and (F) are representative of three different experiments.\n(A) AID degradation following Hsp90 inhibition is distinct from nuclear AID degradation. Ramos cells stably expressing AID-GFP were treated in triplicate with DMSO (Ctrl), 2 microM GA and/or 50 ng/mL leptomycin B (LMB) and the GFP signal was monitored over time by flow cytometry. The MFI normalized to t0=100% is plotted for each treatment. Dead cells were excluded by propidium iodide staining. One out of five identical experiments is shown. […] Ramos cells stably expressing AID-GFP pretreated with 100 ng/mL cycloheximide (CHX), a known protein synthesis inhibitor, for 1 h were treated and analyzed as in (A). One out of four identical experiments is shown. (C) Cytoplasmic destabilization of AID following Hsp90 inhibition. Analogous experiments to those in A and B were performed on Ramos cells stably expressing GFP-AID, which was previously shown to be unable to enter the nucleus (probably because the N-terminal fusion of GFP to AID masks the NLS)^28. One out of three identical experiments is shown. (D) AID degradation following Hsp90 inhibition requires the proteasome. Ramos cells stably expressing AID-GFP were treated with DMSO (Ctrl), 2 microM 17-MG and 10 microM MG132, a known specific proteasome inhibitor, as indicated. The GFP signal was monitored and plotted as above. One out of five experiments is shown. (E) Lower AID steady-state levels induced by Hsp90 inhibition can be blocked by proteasome inhibition in B cell lymphoma lines. Human and chicken B-cell lines (Ramos and DT40 respectively) were treated with 2 microM GA and 10 microM MG132 and subsequently harvested as indicated. The cells were lyzed, fractionated on SDS-PAGE and blotted. Blots were probed with anti-AID and anti-actin. One out of two experiments is shown for each cell line. (F) Hsp90 inhibition enhances AID polyubiquitination. […] Immunoprecipitates were analyzed by western blot using anti-GFP and anti-ubiquitin antibodies. […] In the lower panel, the relative amount of polyubiquitinated AID was quantified by densitometry using ImageQuant™ and the relative value of three independent experiments for each Ramos, HeLa and primary mouse B cells was plotted+SD. […]\n(A) DT40 cells and (B) Hela aid−/− cells stably expressing AID-GFP were treated with the indicated combinations of DMSO (Ctrl), 2 microM GA, 50 ng/mL leptomycin B (LMB), a nuclear export inhibitor and/or 10 microM MG132, a proteasome inhibitor. The GFP signal was monitored by flow cytometry and the MFI normalized to the signal at t0 for each treatment. […]"}, "endogenous AID": {"test_system": "endogenous AID", "assay": "Endogenous AID levels by western blot in B-cell lymphoma lines (Ramos, CH12-F3, DT40)", "format": "cell-based, human, mouse and chicken", "details": "Ramos and DT40; 2 microM GA and 10 microM MG132", "procedure": "as §1\n(A) AID degradation following Hsp90 inhibition is distinct from nuclear AID degradation. Ramos cells stably expressing AID-GFP were treated in triplicate with DMSO (Ctrl), 2 microM GA and/or 50 ng/mL leptomycin B (LMB) and the GFP signal was monitored over time by flow cytometry. The MFI normalized to t0=100% is plotted for each treatment. Dead cells were excluded by propidium iodide staining. […] Ramos cells stably expressing AID-GFP pretreated with 100 ng/mL cycloheximide (CHX), a known protein synthesis inhibitor, for 1 h were treated and analyzed as in (A). […] The GFP signal was monitored and plotted as above. […] Immunoprecipitates were analyzed by western blot using anti-GFP and anti-ubiquitin antibodies. […] In the lower panel, the relative amount of polyubiquitinated AID was quantified by densitometry using ImageQuant™ and the relative value of three independent experiments for each Ramos, HeLa and primary mouse B cells was plotted+SD.\nIn cell lines stably expressing GFP-tagged AID or AID mutants, the GFP fluorescence signal was measured by flow cytometry at various time points after the indicated treatments. […]"}, "Hsp90": {"test_system": "Hsp90", "details": "cited from earlier work"}, "[1]": {"test_system": "various cancer cell lines", "details": "cited from earlier work"}, "AID mRNA": {"test_system": "AID mRNA", "details": "breast and ovarian tissue; cited from earlier work"}},
  "note": "Residues, ends and D or L forms follow the SMILES beside them. *: point of attachment. Cbz = O=C(OCc1ccccc1)*",
  "data": [
    {"compound": "C=CCNC1=C2C[C@@H](C)C[C@H](OC)[C@H](O)[C@@H](C)/C=C(\\C)[C@H](OC(N)=O)[C@@H](OC)/C=C\\C=C(/C)C(=O)NC(=CC1=O)C2=O", "note": "[17-AAG, 17-(Allylamino)-17-demethoxygeldanamycin]", "values": [
      {"measurement": "cell growth", "setting": "DT40 cells", "value": "minimal impact on cell growth"},
      {"measurement": "decrease of mutation frequency versus controls", "setting": "IgVlambda region; 4 weeks", "value": "~5", "unit": "fold"},
      {"measurement": "mutation frequency of the IgVlambda region", "setting": "IgVlambda region; 4 weeks of growth, 10-11 clones per population", "value": "1.11×10^−3 mutations/base pair"}
    ]},
    {"compound": "C[C@@H]1C[C@@H]([C@H](O)CC2CC(=O)NC(=O)C2)C(=O)[C@@H](C)C1", "note": "[CHX, cycloheximide]", "values": [
      {"measurement": "decay of AID-GFP after protein synthesis inhibition", "setting": "AID-GFP; Ramos, CHX alone", "value": "expected decay"}
    ]},
    {"compound": "COC1=C2C[C@@H](C)C[C@H](OC)[C@H](O)[C@@H](C)/C=C(\\C)[C@H](OC(N)=O)[C@@H](OC)/C=C\\C=C(/C)C(=O)NC(=CC1=O)C2=O", "note": "[GA, geldanamycin]", "values": [
      {"measurement": "cell growth", "setting": "DT40 cells", "value": "delayed cell growth"}
    ]},
    {"compound": "CCC(=C/[C@H](C)C/C=C/C(C)=C/[C@@H](C)C(=O)[C@@H](C)[C@H](O)[C@@H](C)C/C(C)=C/C(=O)O)/C=C/[C@@H]1OC(=O)C=C[C@@H]1C", "note": "[LMB, leptomycin B]", "values": [
      {"measurement": "stability of GFP-AID (unable to enter the nucleus)", "setting": "AID-GFP; Ramos expressing GFP-AID", "value": "not destabilized"}
    ]},
    {"compound": "CC(C)C[C@@H](C=O)NC(=O)[C@H](CC(C)C)NC(=O)[C@H](CC(C)C)NC(=O)OCc1ccccc1", "note": "[MG132] (Cbz-Leu-Leu-Leu-aldehyde)", "values": [
      {"measurement": "degradation of endogenous AID induced by Hsp90 inhibition, with proteasome inhibitor", "setting": "endogenous AID", "value": "prevented the degradation of AID"},
      {"measurement": "degradation of AID-GFP induced by Hsp90 inhibition, with proteasome inhibitor", "setting": "AID-GFP", "value": "prevented the degradation of AID"}
    ]},
    {"compound": "O=C1OCC/C=C/CC/C=C/C(=N/OCC(=O)N2CCCCC2)Cc2c(Cl)c(O)cc(O)c21", "note": "[NXD30001]", "values": [
      {"measurement": "Hsp90 binding affinity compared to 17-MG and 17-DMAG", "setting": "Hsp90", "value": "enhanced"},
      {"measurement": "potency in inhibiting cell growth in vitro compared to 17-MG and 17-DMAG", "setting": "[1]", "value": "enhanced"}
    ]},
    {"compound": "CC(=O)N[C@@H](CSC(=O)[C@]1([C@@H](O)C(C)C)NC(=O)[C@H](C)[C@@H]1O)C(=O)O", "note": "[lactacystin]", "values": [
      {"measurement": "degradation of AID-GFP induced by Hsp90 inhibition, with proteasome inhibitor", "setting": "AID-GFP", "value": "Identical results"}
    ]},
    {"compound": "estrogen", "values": [
      {"measurement": "increase in AID mRNA production", "setting": "AID mRNA", "value": "> 20", "unit": "fold"}
    ]}
  ]
}
